This note sets out measurements from ChEMBL document CHEMBL4325868, “Design, synthesis and antitubercular activity of 4-alkoxy-triazoloquinolones able to inhibit the M. tuberculosis DNA gyrase” (Eur J Med Chem, 2019).

The structures appear in SMILES notation. Values after ≈ are worked out from the molar mass of the structure shown.

Data set [1] deals with Mycobacterium tuberculosis. Kind of data set: Antitubercular activity against Mycobacterium tuberculosis H37Rv after 7 days by resazurin microtiter assay. The following applies: 168 h. The class given is functional. For orientation: The colour change of resazurin is a common sign of viable cells or microbes.
Data set [2] can be described thus: Cytotoxicity against African green monkey Vero cells assessed as cell viability at 100 uM after 72 hrs by MTT assay relative to control. Conditions: chlorocebus sabaeus, read-out: Activity. The class given is cell-based. A general note: Tetrazolium assays rely on reduction of a dye to a coloured formazan, in cell work by metabolically active cells.
Data set [3] deals with DNA gyrase subunit A/DNA gyrase subunit B (Mycobacterium tuberculosis (strain ATCC 25618 / H37Rv), UniProt P9WG45+P9WG47). Kind of data set: Inhibition of Mycobacterium tuberculosis DNA gyrase assessed as reduction in supercoiling of relaxed pBR322 DNA substrate after 30 mins by ethidium bromide staining based agarose gel electrophoresis method. The class given is protein-complex assay.
Sequence of DNA gyrase subunit A/DNA gyrase subunit B (P9WG45 whole entry): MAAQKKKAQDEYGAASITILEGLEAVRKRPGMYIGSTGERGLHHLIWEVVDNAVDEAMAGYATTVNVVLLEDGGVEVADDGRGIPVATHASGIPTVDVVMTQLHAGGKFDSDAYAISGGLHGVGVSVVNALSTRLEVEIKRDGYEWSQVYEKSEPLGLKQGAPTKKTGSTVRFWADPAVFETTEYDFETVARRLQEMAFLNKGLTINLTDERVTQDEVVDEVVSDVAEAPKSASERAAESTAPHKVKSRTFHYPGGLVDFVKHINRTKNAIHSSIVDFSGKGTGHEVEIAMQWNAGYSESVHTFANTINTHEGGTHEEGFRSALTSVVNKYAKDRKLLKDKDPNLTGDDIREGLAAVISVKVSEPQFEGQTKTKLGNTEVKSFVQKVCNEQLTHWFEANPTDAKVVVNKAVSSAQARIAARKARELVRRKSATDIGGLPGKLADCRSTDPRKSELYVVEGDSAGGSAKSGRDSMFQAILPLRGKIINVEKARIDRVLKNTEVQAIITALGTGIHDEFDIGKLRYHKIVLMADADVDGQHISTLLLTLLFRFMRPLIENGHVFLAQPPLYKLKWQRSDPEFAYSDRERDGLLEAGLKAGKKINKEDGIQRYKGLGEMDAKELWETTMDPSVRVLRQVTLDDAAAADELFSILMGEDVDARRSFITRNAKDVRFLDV
Sequence of DNA gyrase subunit A/DNA gyrase subunit B (P9WG47 whole entry): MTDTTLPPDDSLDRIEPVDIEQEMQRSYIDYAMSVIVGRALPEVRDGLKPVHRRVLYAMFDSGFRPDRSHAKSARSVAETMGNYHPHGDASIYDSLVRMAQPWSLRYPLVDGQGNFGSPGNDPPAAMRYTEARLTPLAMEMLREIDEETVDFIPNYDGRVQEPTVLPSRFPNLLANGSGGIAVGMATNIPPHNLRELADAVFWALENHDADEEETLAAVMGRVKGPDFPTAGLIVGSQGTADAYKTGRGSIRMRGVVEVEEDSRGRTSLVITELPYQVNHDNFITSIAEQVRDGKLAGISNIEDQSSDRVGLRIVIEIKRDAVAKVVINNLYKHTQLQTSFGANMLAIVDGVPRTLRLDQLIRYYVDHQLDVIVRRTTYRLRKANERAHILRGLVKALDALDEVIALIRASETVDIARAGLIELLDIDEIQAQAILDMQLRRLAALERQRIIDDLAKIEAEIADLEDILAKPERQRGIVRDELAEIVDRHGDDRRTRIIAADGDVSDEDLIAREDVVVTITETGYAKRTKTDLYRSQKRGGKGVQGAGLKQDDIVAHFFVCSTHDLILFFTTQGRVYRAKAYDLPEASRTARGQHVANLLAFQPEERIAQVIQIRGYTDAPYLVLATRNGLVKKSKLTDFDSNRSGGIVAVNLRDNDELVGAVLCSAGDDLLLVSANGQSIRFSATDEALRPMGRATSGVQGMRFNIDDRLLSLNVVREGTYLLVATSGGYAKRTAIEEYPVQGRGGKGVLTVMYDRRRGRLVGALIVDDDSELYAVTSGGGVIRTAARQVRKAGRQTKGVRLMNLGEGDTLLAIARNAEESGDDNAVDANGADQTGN

The test system of data set [4] is Staphylococcus aureus. Kind of data set: Antibacterial activity against Staphylococcus aureus ATCC 2913 after overnight incubation by broth dilution assay. The class given is functional. For orientation: Dilution methods test growth across graded concentrations, often in twofold steps.
For data set [5], the system named is Salmonella typhimurium. Nature of the data set: Antibacterial activity against Salmonella typhimurium ATCC 14028 after overnight incubation by broth dilution assay. The class given is functional, Salmonella enterica subsp. enterica serovar Typhimurium. The following applies: Salmonella enterica.
The test system of data set [6] is Enterococcus faecalis. Kind of data set: Antibacterial activity against Enterococcus faecalis ATCC 2491 after overnight incubation by broth dilution assay. The class given is functional.
For data set [7], the system named is Escherichia coli. Nature of the data set: Antibacterial activity against Escherichia coli ATCC 15922 after overnight incubation by broth dilution assay. The class given is functional.
Data set [8] relates to Candida albicans. Nature of the data set: Antifungal activity against Candida albicans after overnight incubation by broth dilution assay. The class given is functional.
For data set [9], the system named is Candida tropicalis. Nature of the data set: Antifungal activity against Candida tropicalis after overnight incubation by broth dilution assay. The class given is functional.
Data set [10] concerns Mycobacterium tuberculosis. Nature of the data set: Antitubercular activity against Mycobacterium tuberculosis isolate 231 after 7 days by resazurin microtiter assay. The class given is functional. The following applies: isolate 231, 168 h.
The test system of data set [11] is Mycobacterium tuberculosis. Kind of data set: Antitubercular activity against Mycobacterium tuberculosis isolate 1574 after 7 days by resazurin microtiter assay. The data set is classed as functional. The following applies: isolate 1574, 168 h.
Data set [12] deals with Mycobacterium tuberculosis. Nature of the data set: Antitubercular activity against Mycobacterium tuberculosis isolate 1777 after 7 days by resazurin microtiter assay. The class given is functional. Conditions: isolate 1777, 168 h.
The test system of data set [13] is Mycobacterium tuberculosis. Nature of the data set: Antitubercular activity against Mycobacterium tuberculosis isolate 147 after 7 days by resazurin microtiter assay. The class given is functional. The following applies: isolate 147, 168 h.
The test system of data set [14] is Mycobacterium tuberculosis. Kind of data set: Antitubercular activity against Mycobacterium tuberculosis isolate 1657 after 7 days by resazurin microtiter assay. The class given is functional. The following applies: isolate 1657, 168 h.
In data set [15] the test system is Mycobacterium tuberculosis. Nature of the data set: Antitubercular activity against Mycobacterium tuberculosis isolate 1535 after 7 days by resazurin microtiter assay. The data set is classed as functional. The following applies: isolate 1535, 168 h.
Data set [16] concerns Mycobacterium tuberculosis. Kind of data set: Antitubercular activity against Mycobacterium tuberculosis isolate 1567 after 7 days by resazurin microtiter assay. The data set is classed as functional. The following applies: isolate 1567, 168 h.

In general, MIC refers to the smallest concentration in the dilution series that meets the test's criterion for growth inhibition. Broadly, the IC50 is the concentration at which inhibition is half-maximal.

For the compound `CCOC(=O)c1cnc2c(cc(OC)c3nnn(C)c32)c1OCC`, the MIC in [1] is above 100 µM. The viability at 72 h, 100 µM in [2] was found to be 85.4%.

For `Cn1cc(C(=O)O)c(=O)c2cc(F)c3c(nnn3C)c21`, the lowest concentration to inhibit growth in data set [1] (MIC) was 57.9 µM (≈ 16 µg/mL). In addition, the viability at 72 h, 100 µM in data set [2] is 81.2%.

For `CCOc1c(C(=O)O)cnc2c1cc(OC)c1nnn(C)c12`, the MIC in data set [1] was above 100 µM. In addition, in [2], the viability at 72 h, 100 µM amounted to 83.6%.

Take `CCOc1cc2c(=O)c(C(=O)O)cn(CC)c2c2nnn(C)c12`: it took 25.3 µM (≈ 8 µg/mL) to inhibit growth in [1] (MIC). For the same compound, in [2], the viability at 72 h, 100 µM turned out to be 92.1%.

`CCn1cc(C(=O)O)c(=O)c2cc(OC)c3c(nnn3C)c21`: the minimal inhibitory concentration (MIC) in data set [1] is 52.9 µM (≈ 16 µg/mL). The viability at 72 h, 100 µM in data set [2] was 90.1%.

`CCn1cc(C(=O)O)c(=O)c2cc(F)c3c(nnn3C)c21` returned an MIC in data set [1] above 100 µM. The viability at 72 h, 100 µM in [2] was 95.1%.

With `COC(=O)c1cn(C)c2c(ccc3c2nnn3C)c1=O`, the MIC in data set [1] was above 100 µM. For the same compound, the viability at 72 h, 100 µM in data set [2] was determined as 91.2%.

Take `COc1cc2c(=O)c(C(=O)O)c[nH]c2c2c1nnn2C`: the minimal inhibitory concentration (MIC) in [1] is above 100 µM. Moreover, the viability at 72 h, 100 µM in data set [2] came out at 92.9%.

For the compound `CCOC(=O)c1cn(CC)c2c(cc(OCC)c3c2nnn3C)c1=O`, the MIC in data set [1] is above 100 µM. Besides, the viability at 72 h, 100 µM in data set [2] is 95.1%.

In data set [1], `COc1cc2c(=O)c(C(=O)O)cn(C)c2c2nn(C)nc12` displayed an MIC of 27.8 µM (≈ 8.01 µg/mL). The viability at 72 h, 100 µM in data set [2] turned out to be 89.5%.

Take `CCOc1cc2c(=O)c(C(=O)O)cn(C)c2c2nnn(C)c12`: the MIC is 6.6 µM (≈ 2 µg/mL) in [1]; above 100 µM in [4]; above 100 µM in data set [5]; above 100 µM in [6]; above 100 µM in [7]; above 100 µM in data set [8]. Moreover, the MIC in [9] was above 100 µM. The viability at 72 h, 100 µM in data set [2] turned out to be 94.3%. For the same compound, in data set [3], the IC50 was 28.2 µM.

Take `CCn1cc(C(=O)O)c(=O)c2cc(OC)c3nn(C)nc3c21`: the MIC in data set [1] was above 100 µM. Also, the viability at 72 h, 100 µM in data set [2] amounted to 94.2%.

Consider `CCOC(=O)c1cnc2c(cc(OC)c3nnn(C)c32)c1OC`, for which, in data set [1], the MIC is above 100 µM. For the same compound, the viability at 72 h, 100 µM in [2] turned out to be 80.8%.

With `CCOC(=O)c1cn(CC)c2c(cc(OC)c3c2nnn3C)c1=O`, the minimum inhibitory concentration (MIC) in data set [1] was above 100 µM. The viability at 72 h, 100 µM in data set [2] is 84.4%.

As to `CCOC(=O)c1cn(CC)c2c(cc(OC)c3nn(C)nc32)c1=O`, the minimal inhibitory concentration (MIC) in data set [1] was above 100 µM. Moreover, in data set [2], the viability at 72 h, 100 µM worked out at 79.3%.

On to `CCOC(=O)c1cn(C)c2c(cc(OC)c3c2nnn3C)c1=O`, for which the minimum inhibitory concentration (MIC) in [1] was above 100 µM. In addition, the viability at 72 h, 100 µM in data set [2] amounted to 92%.

In the case of `Cn1cc(C(=O)O)c(=O)c2cc([N+](=O)[O-])c3c(nnn3C)c21`, in data set [1], the MIC is above 100 µM. In [2], the viability at 72 h, 100 µM was determined as 88.8%.

Turning to `O=C(O)c1cn(C2CC2)c2cc(N3CCNCC3)c(F)cc2c1=O` [CIPROFLOXACIN], in [1], 1.5 µM (≈ 0.497 µg/mL) was the least that counted as inhibitory (MIC). Also, in data set [2], the viability at 72 h, 100 µM was determined as 95.2%.

For the compound `COc1cc2c(=O)c(C(=O)O)cn(C)c2c2nnn(C)c12`, the MIC in data set [1] is 6.9 µM (≈ 1.99 µg/mL); in data set [10], 4 µM (≈ 1.15 µg/mL); in data set [11], 32 µM (≈ 9.22 µg/mL); in [12], 8 µM (≈ 2.31 µg/mL); in [13], 8 µM (≈ 2.31 µg/mL); in data set [14] it was 4 µM (≈ 1.15 µg/mL). In addition, the minimum inhibitory concentration (MIC) in data set [15] is 16 µM (≈ 4.61 µg/mL); in data set [16] it was 32 µM (≈ 9.22 µg/mL); in [4], above 100 µM; in data set [5] it was above 100 µM; in data set [6] it was above 100 µM; in data set [7] it was above 100 µM. The minimal inhibitory concentration (MIC) in data set [8] and in data set [9] was above 100 µM each time. In addition, the viability at 72 h, 100 µM in [2] is 90.4%. For the same compound, the IC50 in data set [3] was found to be 27.6 µM.

Take `COc1cc2c(=O)c(C(=O)O)c[nH]c2c2nnn(C)c12`: the MIC in data set [1] is above 100 µM. Besides, in data set [2], the viability at 72 h, 100 µM was 90.2%. Also, in data set [3], the IC50 turned out to be 91.3 µM.

In turn, `COc1c(C(=O)O)cnc2c1cc(OC)c1nnn(C)c12` showed an MIC in data set [1] above 100 µM. Moreover, in [2], the viability at 72 h, 100 µM stood at 85.7%.

Compound `CCSc1cc2c(=O)c(C(=O)O)cn(C)c2c2nnn(C)c12` registered a minimal inhibitory concentration (MIC) in data set [1] of 50.3 µM (≈ 16 µg/mL). The viability at 72 h, 100 µM in data set [2] was 87.7%.
